The values below come from patent publication US20110182850A1, “ORGANIC COMPOUNDS AND THEIR USES” (priority 2009, published 2011).

T1 sequence (P26664 1658-1711): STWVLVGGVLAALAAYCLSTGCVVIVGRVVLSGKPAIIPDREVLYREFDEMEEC
T1 sequence (P26664 1027-1657): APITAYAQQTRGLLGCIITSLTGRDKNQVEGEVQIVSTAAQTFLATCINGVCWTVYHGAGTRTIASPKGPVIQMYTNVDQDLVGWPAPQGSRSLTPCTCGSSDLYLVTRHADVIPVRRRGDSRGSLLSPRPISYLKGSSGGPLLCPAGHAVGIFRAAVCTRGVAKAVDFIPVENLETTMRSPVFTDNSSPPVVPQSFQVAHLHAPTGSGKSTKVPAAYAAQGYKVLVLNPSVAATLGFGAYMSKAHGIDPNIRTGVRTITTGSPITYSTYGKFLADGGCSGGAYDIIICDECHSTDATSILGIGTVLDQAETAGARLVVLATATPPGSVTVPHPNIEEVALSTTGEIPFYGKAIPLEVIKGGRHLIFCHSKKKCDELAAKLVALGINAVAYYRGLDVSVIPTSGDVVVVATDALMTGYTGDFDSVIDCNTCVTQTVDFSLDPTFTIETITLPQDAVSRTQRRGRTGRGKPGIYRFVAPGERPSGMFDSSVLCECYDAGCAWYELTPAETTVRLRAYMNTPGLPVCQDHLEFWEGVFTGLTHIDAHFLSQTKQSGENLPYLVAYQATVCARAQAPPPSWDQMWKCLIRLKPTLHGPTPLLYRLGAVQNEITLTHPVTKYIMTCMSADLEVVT

One assay addresses T1, HCV NS3-4A serine protease (full-length NS3-4A protein, genotype 1a, strain HCV-1) (Hepatitis C virus genotype 1a, UniProt P26664).
T1 construct: using the full-length NS3-4A protein (genotype 1a, strain HCV-1)
As to the kind of experiment: HCV NS3-4A protease assay. The class given is biochemical. The conditions noted are these: Protease IC50. On the procedure: The inhibitory activity of certain compounds of Table A against HCV NS3-4A serine protease is determined in a homogenous assay using the full-length NS3-4A protein (genotype 1a, strain HCV-1) and a commercially available internally-quenched fluorogenic peptide substrate as described by Taliani, M., et al. 1996 Anal. Biochem. 240:60-67, which is incorporated by reference in its entirety.
The compound `CC[C@@H]1C[C@]1(NC(=O)[C@@H]1C[C@@]2(CN1C(=O)[C@@H](NC(=O)[C@@H](NC(=O)[C@@H]1CCCCN1C(C)C)C(C)(C)C)C(C)(C)C)C(C)(C)C21CCC1)C(=O)NS(=O)(=O)C1CC1` [Compound 91, (5R,8S)-N-{(1R,2R)-1-[(cyclopropylsulfonyl)carba-moyl]-2-ethylcyclopropyl}-7-[(2S)-2-{[(2S)-2-({[(2S)-1-isopropylpiperidin-2-yl]carbonyl}amino)-3,3-dimethylbutanoyl]amino}-3,3-dimethylbutanoyl]-10,10-dimethyl-7-azadispiro[3.0.4.1]decane-8-carboxamide] displayed an IC50 of 3.5 nM. The compound `C=C[C@@H]1C[C@]1(NC(=O)[C@@H]1C[C@@]2(CN1C(=O)C(NC(=O)[C@@H](NC(=O)OC(C)(C)C)C(C)(C)C)C(C)(C)C)C(C)(C)C21CCC1)C(=O)NS(=O)(=O)c1ccccc1` (stereo partly drawn) [Compound 5, tert-butyl {(1S)-1-[(1-{[(5R,8S)-10,10-dimethyl-8-({(1R,2S)-1-[(phenylsulfonyl)carbamoyl]-2-vinylcyclopropyl}carbamoyl)-7-azadispiro[3.0.4.1]dec-7-yl]carbonyl}-2,2-dimethylpropyl)carbamoyl]-2,2-dimethylpropyl}carbamate] showed an IC50 of 1950 nM.

In turn, `C=C[C@@H]1C[C@]1(NC(=O)[C@@H]1C[C@@]2(CN1C(=O)[C@@H](NC(=O)[C@H]1NC(=O)[C@@H]3CCCCN3CCCCCCC1(C)C)C(C)(C)C)C(C)(C)C21CCC1)C(=O)NS(=O)(=O)C1CC1` [Compound 53, (5R,8S)-N-{(1R,2S)-1-[(cyclopropylsulfonyl)carba-moyl]-2-vinylcyclopropyl}-7-[(2S)-2-({[(3S,15aS)-4,4-dimethyl-1-oxotetradecahydro-2H-pyrido[1,2-a][1,4]diazacyclododecin-3-yl]carbonyl}amino)-3,3-dimethylbutanoyl]-10,10-dimethyl-7-azadispiro[3.0.4.1]decane-8-carboxamide] gave an IC50 of 3.5 nM. On to `C=CCC(C)(NC(=O)[C@@H]1C[C@@]2(CN1C(=O)[C@@H](NC(=O)[C@@H](NC(=O)[C@@H]1CCCCN1C(C)C)C(C)(C)C)C(C)(C)C)C(C)(C)C21CCC1)C(=O)NS(=O)(=O)C1CC1` (stereo partly drawn) [Compound 86, (5R,8S)-N-{1-[(cyclopropylsulfonyl)carba-moyl]-1-methylbut-3-en-1-yl}-7-[(2S)-2-{[(2S)-2-({[(2S)-1-isopropylpiperidin-2-yl]carbonyl}amino)-3,3-dimethylbutanoyl]amino}-3,3-dimethylbutanoyl]-10,10-dimethyl-7-azadispiro[3.0.4.1]decane-8-carboxamide], for which the IC50 was 4050 nM. For `C=C1CC(NC(=O)[C@@H]2C[C@@]3(CN2C(=O)[C@@H](NC(=O)[C@@H](NC(=O)[C@@H]2CCCCN2C(C)C)C(C)(C)C)C(C)(C)C)C(C)(C)C32CCC2)(C(=O)NS(=O)(=O)C2CC2)C1` [Compound 132, (5R,8S)-N-{1-[(cyclopropylsulfonyl)carba-moyl]-3-methylenecyclobutyl}-7-[(2S)-2-{[(2S)-2-({[(2S)-1-isopropylpiperidin-2-yl]carbonyl}amino)-3,3-dimethylbutanoyl]amino}-3,3-dimethylbutanoyl]-10,10-dimethyl-7-azadispiro[3.0.4.1]decane-8-carboxamide], the IC50 amounted to 1300 nM. The compound `CC(C)N1CCCC[C@H]1C(=O)N[C@H](C(=O)N[C@H](C(=O)N1C[C@]2(C[C@H]1C(=O)NC1(C(=O)NS(=O)(=O)C3CC3)CC=CC1)C(C)(C)C21CCC1)C(C)(C)C)C(C)(C)C` [Compound 23, (5R,8S)-N-{1-[(cyclopropylsulfonyl)carba-moyl]cyclopent-3-en-1-yl}-7-[(2S)-2-{[(2S)-2-({[(2S)-1-isopropylpiperidin-2-yl]carbonyl}amino)-3,3-dimethylbutanoyl]amino}-3,3-dimethylbutanoyl]-10,10-dimethyl-7-azadispiro[3.0.4.1]decane-8-carboxamide] returned an IC50 of 1250 nM. `C=C[C@@H]1C[C@]1(NC(=O)[C@@H]1C[C@@]2(CN1C(=O)[C@@H](NC(=O)C(NC(=O)c1cc3ccccc3[nH]1)C1CCCCC1)C(C)(C)C)C(C)(C)C21CCC1)C(=O)NS(=O)(=O)C1CC1` (stereo partly drawn) [Compound 125, (5R,8S)-7-[(2S)-2-({cyclohexyl[(1H-indol-2-ylcarbonyl)amino]acetyl}amino)-3,3-dimethylbutanoyl]-N-{(1R,2S)-1-[(cyclopropylsulfonyl)carba-moyl]-2-vinylcyclopropyl}-10,10-dimethyl-7-azadispiro[3.0.4.1]decane-8-carboxamide]: the IC50 came out at 1.5 nM.

Staying with this assay, now noted: read-out: Protease IC50.
As for `C=C[C@@H]1C[C@]1(NC(=O)[C@@H]1C[C@@]2(CN1C(=O)[C@@H](NC(=O)OC1CCCC1)C(C)(C)C)C(C)(C)C21CCC1)C(=O)NS(=O)(=O)C1CC1` [Compound 10, cyclopentyl [(1S)-1-{[(5R,8S)-8-({(1R,2S)-1-[(cyclopropylsulfonyl)carba-moyl]-2-vinylcyclopropyl}carbamoyl)-10,10-dimethyl-7-azadispiro[3.0.4.1]dec-7-yl]carbonyl}-2,2-dimethylpropyl]carbamate], the IC50 stood at 25 nM. On the same count and under the same terms, then `C=C[C@@H]1C[C@]1(NC(=O)[C@@H]1C[C@@]2(CN1C(=O)[C@@H](NC(=O)N[C@H](C(=O)N(C)C)C(C)(C)C)C(C)(C)C)C(C)(C)C21CCC1)C(=O)NS(=O)(=O)C1CC1` [Compound 30, (5R,8S)-N-{(1R,2S)-1-[(cyclopropylsulfonyl)carba-moyl]-2-vinylcyclopropyl}-7-[(2S)-2-({[(1S)-1-(dimethylcarbamoyl)-2,2-dimethylpropyl]carbamoyl}amino)-3,3-dimethylbutanoyl]-10,10-dimethyl-7-azadispiro[3.0.4.1]decane-8-carboxamide], with 8 nM; and `C=C[C@@H]1C[C@]1(NC(=O)[C@@H]1C[C@@]2(CN1C(=O)[C@@H](NC(=O)[C@@H](NS(=O)(=O)c1cn(C)cn1)C(C)(C)C)C(C)(C)C)C(C)(C)C21CCC1)C(=O)NS(=O)(=O)C1CC1` [Compound 52, (5R,8S)-N-{(1R,2S)-1-[(cyclopropylsulfonyl)carba-moyl]-2-vinylcyclopropyl}-7-[(2S)-2-{[(2S)-3,3-dimethyl-2-{[(1-methyl-1H-imidazol-4-yl)sulfonyl]amino}butanoyl]amino}-3,3-dimethylbutanoyl]-10,10-dimethyl-7-azadispiro[3.0.4.1]decane-8-carboxamide], with 200 nM. Turning to `C=C[C@@H]1C[C@]1(NC(=O)[C@@H]1C[C@@]2(CN1C(=O)[C@@H](NC(=O)N[C@H](CN1CCN(C)CC1)C(C)(C)C)C(C)(C)C)C(C)(C)C21CCC1)C(=O)NS(=O)(=O)C1CC1` [Compound 16, (5R,8S)-N-{(1R,2S)-1-[(cyclopropylsulfonyl)carba-moyl]-2-vinylcyclopropyl}-7-{(2S)-2-[({(1S)-2,2-dimethyl-1-[(4-methylpiperazin-1-yl)methyl]propyl}carbamoyl)amino]-3,3-dimethylbutanoyl}-10,10-dimethyl-7-azadispiro[3.0.4.1]decane-8-carboxamide], the IC50 was 10 nM.

Usually IC50 stands for the point on the concentration scale where inhibition reaches its midpoint.
